Assay results: publication PMC6008489 (Bioorganic & Medicinal Chemistry, 2018)
Structures can show the parent of a compound that is named as a salt.

Key:
MPS1 [1] = biological target: T1, MPS1 (Homo sapiens, UniProt P33981); format: biochemical; conditions: for Ki: calculated from mean IC50 using the Cheng-Prusoff equation; for MPS1 ligand efficiency (LE): from Ki
T1 sequence (P33981 1-857): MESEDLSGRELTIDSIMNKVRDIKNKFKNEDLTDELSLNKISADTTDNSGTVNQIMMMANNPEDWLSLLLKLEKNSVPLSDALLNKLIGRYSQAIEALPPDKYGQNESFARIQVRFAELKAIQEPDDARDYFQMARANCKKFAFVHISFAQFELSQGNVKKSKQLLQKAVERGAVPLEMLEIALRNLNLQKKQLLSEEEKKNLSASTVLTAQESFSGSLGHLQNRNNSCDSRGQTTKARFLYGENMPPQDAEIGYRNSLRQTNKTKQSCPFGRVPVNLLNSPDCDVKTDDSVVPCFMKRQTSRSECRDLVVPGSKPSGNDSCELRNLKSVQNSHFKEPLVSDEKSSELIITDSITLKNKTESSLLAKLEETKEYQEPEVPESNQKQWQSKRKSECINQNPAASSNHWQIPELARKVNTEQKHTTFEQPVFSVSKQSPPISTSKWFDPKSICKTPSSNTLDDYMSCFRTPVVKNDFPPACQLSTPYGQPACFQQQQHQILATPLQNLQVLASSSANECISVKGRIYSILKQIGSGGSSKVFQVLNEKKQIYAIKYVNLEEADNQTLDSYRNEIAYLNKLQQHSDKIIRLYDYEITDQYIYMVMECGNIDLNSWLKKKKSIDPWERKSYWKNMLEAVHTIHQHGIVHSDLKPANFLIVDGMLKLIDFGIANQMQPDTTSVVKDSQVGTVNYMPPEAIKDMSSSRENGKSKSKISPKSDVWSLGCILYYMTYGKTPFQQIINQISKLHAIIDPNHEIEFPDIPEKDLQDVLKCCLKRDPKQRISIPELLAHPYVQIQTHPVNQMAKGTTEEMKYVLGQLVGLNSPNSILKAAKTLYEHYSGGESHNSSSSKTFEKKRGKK
Protocol: (§1) IC50 values were obtained for an expanded version of the fragment library using the previously described mobility shift assay.[44] Subsequently, Ki values were estimated from IC50 values to allow better comparison of the activity against targets which were measured at different substrate concentrations (Supplementary data Table 1).
(§2) IC50 values for MPS1, Aurora A and Aurora B inhibition were determined as previously described,[44] and Ki values were estimated from the mean IC50 values using the Cheng-Prusoff equation.[48]
(§3) Kinase [ATP] (M) [Enzyme] (nM) [Peptide Substrate] (M) MgCl2 (mM)
(§4) For all compounds, IC50 values for MPS1, Aurora A, and Aurora B were determined
(§5) using MPS1 and Aurora A/B mobility shift assays as described previously.1 IC50
(§6) values were calculated from a four-parameter logistic fit of percentage inhibition
(§7) versus concentration (at 8 compound concentrations) using GraphPad Prism 5
(§8) (GraphPad Software, Inc., CA, USA). Mean IC50 values were determined from two
(§9) independent measurements each carried out in duplicate. Ki values were estimated
(§10) from the mean IC50 values using the Cheng-Prusoff equation.

Aurora A = biological target: T2, Aurora A (Homo sapiens, UniProt O14965); format: biochemical; conditions: for Ki: calculated from mean IC50 using the Cheng-Prusoff equation, read-out: AurA Ki; for AurA ligand efficiency (LE): from Ki
T2 sequence (O14965 1-403): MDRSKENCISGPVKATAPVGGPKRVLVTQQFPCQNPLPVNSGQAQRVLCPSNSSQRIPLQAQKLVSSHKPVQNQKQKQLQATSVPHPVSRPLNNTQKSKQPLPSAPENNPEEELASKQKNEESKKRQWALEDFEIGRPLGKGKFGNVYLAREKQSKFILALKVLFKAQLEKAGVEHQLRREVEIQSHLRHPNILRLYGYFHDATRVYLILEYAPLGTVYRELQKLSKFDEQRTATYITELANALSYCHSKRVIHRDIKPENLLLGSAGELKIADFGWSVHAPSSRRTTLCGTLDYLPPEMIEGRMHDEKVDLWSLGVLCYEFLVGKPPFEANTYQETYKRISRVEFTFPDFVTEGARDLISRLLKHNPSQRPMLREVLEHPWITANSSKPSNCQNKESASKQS
Protocol: as §1, §2, §3, §4, §5, §6, §7, §8, §9, §10

Aurora B = Aurora B (Homo sapiens, UniProt Q96GD4); format: biochemical; conditions: for Ki: calculated from mean IC50 using the Cheng-Prusoff equation, read-out: AurB Ki; for AurB ligand efficiency (LE): from Ki;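 for all read-outs here: aurora B inhibition measured in a mobility shift assay, underlying mean IC50 taken from two independent duplicate runs at 8 compound concentrations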
Aurora B, sequence (Q96GD4 whole entry): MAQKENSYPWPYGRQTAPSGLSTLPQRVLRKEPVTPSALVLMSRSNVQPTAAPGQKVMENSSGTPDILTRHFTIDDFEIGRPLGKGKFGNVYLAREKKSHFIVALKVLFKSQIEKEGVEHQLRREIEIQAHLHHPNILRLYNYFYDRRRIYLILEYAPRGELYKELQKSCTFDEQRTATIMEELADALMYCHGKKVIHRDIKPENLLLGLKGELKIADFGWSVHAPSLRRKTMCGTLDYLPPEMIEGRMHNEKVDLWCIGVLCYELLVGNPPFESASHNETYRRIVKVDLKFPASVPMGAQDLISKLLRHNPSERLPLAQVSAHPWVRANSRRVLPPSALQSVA
Protocol: as §1, §2, §3, §4, §5, §6, §7, §8, §9, §10

MPS1 [2] = biological target: T1, MPS1; experiment: biochemical; conditions: read-out: % Inhibition MPS1
Protocol: (§11) In order to test the biochemical activity of our fragment library, a panel of 26 structurally diverse protein kinases was used.
(§12) Screening of 26 kinases using a mobility shift assay
(§13) A mobility shift assay to determine kinase inhibition was carried out using a
(§14) modified version of the ProfilerPro assay kit 1 (Perkin Elmer, Coventry, UK)
(§15) including MPS1 and Aurora B. Each kit contained an enzyme plate, a substrate
(§16) plate, reconstitution buffer, 1 M DTT, protease inhibitor cocktail and termination
(§17) buffer. Test compounds were added as a solution in DMSO.
(§18) peptide phosphorylation assay was carried out as per the manufacturer’s
(§19) instructions. The electrophoretic separation and analysis of the phosphorylated
(§20) and non-phosphorylated peptides was carried out on a 4-sipper chip using a
(§21) LabChip EZReader II (Perkin Elmer). Results were expressed as % inhibition of
(§22) peptide phosphorylation relative to control wells for 0 % (no test compound) and
(§23) 100 % (no ATP) inhibition. The percentage inhibition was calculated using the
(§24) % Inhibition = [1 - (% Conversion Sample / % Conversion 0% Inhibition Control)] x 100

SRC = biological target: T3, SRC (Homo sapiens, UniProt P12931); experiment: 26-kinase panel mobility shift assay, single concentration; format: biochemical; conditions: read-out: % Inhibition SRC
T3 construct: purchased Perkin Elmer (ProfilerPro assay kit 1)
T3 sequence (P12931 whole entry): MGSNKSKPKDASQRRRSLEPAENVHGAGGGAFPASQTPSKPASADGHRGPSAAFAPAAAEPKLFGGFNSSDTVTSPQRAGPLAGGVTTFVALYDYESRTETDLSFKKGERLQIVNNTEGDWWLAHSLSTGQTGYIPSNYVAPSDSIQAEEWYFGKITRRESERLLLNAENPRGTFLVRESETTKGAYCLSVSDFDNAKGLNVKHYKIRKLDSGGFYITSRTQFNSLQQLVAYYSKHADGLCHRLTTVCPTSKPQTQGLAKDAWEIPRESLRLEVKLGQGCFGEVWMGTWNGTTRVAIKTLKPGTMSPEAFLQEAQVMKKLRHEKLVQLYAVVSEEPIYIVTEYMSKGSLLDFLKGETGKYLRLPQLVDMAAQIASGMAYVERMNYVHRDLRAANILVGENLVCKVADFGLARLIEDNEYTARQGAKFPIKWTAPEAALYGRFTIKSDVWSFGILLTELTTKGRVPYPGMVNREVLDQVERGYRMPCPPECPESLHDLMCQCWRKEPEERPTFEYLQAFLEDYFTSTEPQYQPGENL
Protocol: as §11, §12, §13, §14, §15, §16, §17, §18, §19, §20, §21, §22, §23, §24

INSR = biological target: T4, INSR (Homo sapiens, UniProt P06213); experiment: as above; format: biochemical; conditions: read-out: % Inhibition INSR
T4 construct: purchased Perkin Elmer (ProfilerPro assay kit 1)
T4 sequence (P06213 28-1382): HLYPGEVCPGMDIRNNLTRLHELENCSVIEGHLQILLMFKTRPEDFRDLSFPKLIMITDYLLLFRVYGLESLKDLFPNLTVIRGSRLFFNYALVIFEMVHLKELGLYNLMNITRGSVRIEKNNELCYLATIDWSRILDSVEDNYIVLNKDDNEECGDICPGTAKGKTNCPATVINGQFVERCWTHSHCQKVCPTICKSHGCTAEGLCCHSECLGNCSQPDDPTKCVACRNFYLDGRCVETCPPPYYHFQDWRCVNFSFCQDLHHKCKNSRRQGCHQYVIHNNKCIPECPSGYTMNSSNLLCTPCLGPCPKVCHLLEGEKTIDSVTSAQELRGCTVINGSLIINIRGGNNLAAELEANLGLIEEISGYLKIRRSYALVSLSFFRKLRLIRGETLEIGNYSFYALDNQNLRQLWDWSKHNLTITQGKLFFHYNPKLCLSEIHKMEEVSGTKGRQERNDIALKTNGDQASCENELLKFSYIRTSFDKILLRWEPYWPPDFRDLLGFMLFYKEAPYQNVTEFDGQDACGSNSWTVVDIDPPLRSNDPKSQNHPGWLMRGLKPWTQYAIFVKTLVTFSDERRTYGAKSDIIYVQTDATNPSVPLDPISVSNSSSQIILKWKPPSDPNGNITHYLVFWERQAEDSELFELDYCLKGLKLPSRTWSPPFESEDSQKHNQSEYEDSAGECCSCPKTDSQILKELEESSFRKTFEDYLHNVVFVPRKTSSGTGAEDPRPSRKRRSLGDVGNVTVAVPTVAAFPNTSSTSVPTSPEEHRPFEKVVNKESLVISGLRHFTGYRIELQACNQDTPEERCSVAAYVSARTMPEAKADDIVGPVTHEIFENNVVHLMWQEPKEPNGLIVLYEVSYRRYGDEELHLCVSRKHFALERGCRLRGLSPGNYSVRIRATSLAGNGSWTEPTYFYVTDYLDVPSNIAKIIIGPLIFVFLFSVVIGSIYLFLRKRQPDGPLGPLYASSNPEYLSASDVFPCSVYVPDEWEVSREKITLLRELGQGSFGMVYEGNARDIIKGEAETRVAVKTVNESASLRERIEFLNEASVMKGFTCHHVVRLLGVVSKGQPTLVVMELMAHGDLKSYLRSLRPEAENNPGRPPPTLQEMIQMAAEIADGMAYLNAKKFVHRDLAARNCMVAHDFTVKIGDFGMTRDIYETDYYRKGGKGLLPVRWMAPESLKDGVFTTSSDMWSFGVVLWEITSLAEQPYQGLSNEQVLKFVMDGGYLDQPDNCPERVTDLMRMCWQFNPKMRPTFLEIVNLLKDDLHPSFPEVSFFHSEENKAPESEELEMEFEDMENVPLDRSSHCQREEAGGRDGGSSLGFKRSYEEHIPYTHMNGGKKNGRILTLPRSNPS
Protocol: as §11, §12, §13, §14, §15, §16, §17, §18, §19, §20, §21, §22, §23, §24

AKT2 = biological target: T5, AKT2 (Homo sapiens, UniProt P31751); experiment: as above; format: biochemical; conditions: read-out: % Inhibition AKT2
T5 construct: purchased Perkin Elmer ProfilerPro assay kit 1
T5 sequence (P31751 whole entry): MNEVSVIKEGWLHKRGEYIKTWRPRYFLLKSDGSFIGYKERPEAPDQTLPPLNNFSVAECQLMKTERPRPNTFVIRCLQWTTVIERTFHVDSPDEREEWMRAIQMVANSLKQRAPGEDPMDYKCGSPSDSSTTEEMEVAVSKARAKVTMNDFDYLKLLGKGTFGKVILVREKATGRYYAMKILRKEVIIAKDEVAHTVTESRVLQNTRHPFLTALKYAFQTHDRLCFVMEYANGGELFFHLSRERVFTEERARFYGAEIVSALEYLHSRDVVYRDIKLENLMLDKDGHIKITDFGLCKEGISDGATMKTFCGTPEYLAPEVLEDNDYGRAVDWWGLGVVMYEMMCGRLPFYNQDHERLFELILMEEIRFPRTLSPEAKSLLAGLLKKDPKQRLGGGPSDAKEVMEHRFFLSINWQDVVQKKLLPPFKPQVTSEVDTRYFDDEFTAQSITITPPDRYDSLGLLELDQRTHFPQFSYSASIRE
Protocol: as §11, §12, §13, §14, §15, §16, §17, §18, §19, §20, §21, §22, §23, §24

| Compound | melting point [°C] | Ki (MPS1 [1]) [µM] | MPS1 ligand efficiency (LE) (MPS1 [1]) | Ki (Aurora A) [µM] | AurA ligand efficiency (LE) (Aurora A) | Ki (Aurora B) [µM] | AurB ligand efficiency (LE) (Aurora B) | inhibition at 100 µM (MPS1 [2]) [%] | inhibition at 100 µM (SRC) [%] | inhibition at 100 µM (INSR) [%] | inhibition at 100 µM (AKT2) [%] |
| --- | --- | --- | --- | --- | --- | --- | --- | --- | --- | --- | --- |
| Nc1cc(-c2cncnc2)c[nH]c1=O (as salt: sodium) [Compound 10, 3-Amino-5-(pyrimidin-5-yl)pyridin-2(1H)-one] | 240 |  |  |  |  |  |  |  |  |  |  |
| Nc1cc(-c2ccccc2)cnc1O [Compound 9, 3-Amino-5-phenyl-pyridin-2-one] |  | 128 | 0.38 | 66.9 | 0.41 | 70.3 | 0.40 |  |  |  |  |
| Nc1cc(-c2cncnc2)c[nH]c1=O [Compound 10, 3-Amino-5-(pyrimidin-5-yl)pyridin-2(1H)-one] |  | 269 | 0.35 | 89.6 | 0.39 | 18.7 | 0.46 |  |  |  |  |
| Nc1cc(-c2cccnc2)c[nH]c1=O [Compound 11] |  | 98.1 | 0.39 | 125 | 0.38 | 97.2 | 0.39 |  |  |  |  |
| Cc1[nH]c(=O)c(C#N)cc1-c1ccncc1 [Compound 13, Milrinone, reference compound] |  | > 100 |  | > 100 |  | > 100 |  |  |  |  |  |
| Cc1[nH]c(=O)c(C(N)=O)cc1-c1ccncc1 [Compound 14] |  | > 100 |  | > 100 |  | > 100 |  |  |  |  |  |
| COc1cccc(C(=O)Nc2cc(-c3ccncc3)c[nH]c2=O)c1 [Compound 17, 3-Methoxy-N-(2-oxo-5-(pyridin-4-yl)-1,2-dihydropyridin-3-yl)benzamide] | 287 | 24.8 |  |  |  |  |  | 42 | 59 | 21 | 50 |
| COc1cc(OC)cc(C(=O)Nc2cc(-c3ccncc3)c[nH]c2=O)c1 [Compound 18, 3,5-Dimethoxy-N-(2-oxo-5-(pyridin-4-yl)-1,2-dihydropyridin-3-yl)benzamide] |  | 30.1 |  | > 100 |  | 32.9 |  |  |  |  |  |
| O=C(Nc1cc(-c2ccncc2)c[nH]c1=O)c1cccc(F)c1 [Compound 19, 3-Fluoro-N-(2-oxo-5-(pyridin-4-yl)-1,2-dihydropyridin-3-yl)benzamide] | 292 | > 100 |  | > 100 |  | > 100 |  |  |  |  |  |
| O=C(Nc1cc(-c2ccncc2)c[nH]c1=O)c1cc(F)cc(F)c1 [Compound 20] | 293 |  |  |  |  |  |  |  |  |  |  |
| O=c1[nH]cc(-c2ccncc2)cc1NS(=O)(=O)c1ccccc1 [Compound 21] | 289 | > 100 |  | > 100 |  | > 100 |  |  |  |  |  |
| O=C(Nc1cc(-c2ccncc2)c[nH]c1=O)c1ccc(N2CCCCC2)cc1 [Compound 23] | 284 | 2.9 | 0.27 | 2.6 | 0.27 | 7.4 | 0.25 |  |  |  |  |
